Measured values from patent publication US7745493B2, “Methods of treating tardive dyskinesia and other movement disorders” (priority 1998, dated 2010).
Marks after values point to notes of the source that are not given here.

How the values were obtained:
Format in all cases: in vivo, human
[1] = system: patients with dyskinetic movements (TD, tics); experiment: Inventor's overall clinical experience, cases 1-6
Source text: The ratio of acamprosate to magnesium can be varied to optimize the therapeutic synergy of the two ingredients. […] At typical therapeutic dosages of acetylhomotaurinate, the amount of magnesium is too low to have therapeutically-relevant effects on glutamate transmission. In my experience, I have had excellent therapeutic results from combining a 2 gram daily dosage of acamprosate with 1 gram of elemental magnesium, given as a salt or chelate. […] Allowing for variations in individual response, and variations in the intestinal absorption of both acamprosate and magnesium, I assert that the optimal ratio of mg:acetylhomotaurinate for an individual patient will be somewhere between 1:6 and 1:1. […] Although magnesium N-acetylhomotaurinate may be slightly more efficacious than calcium N-acetylhomotaurinate for treatment of tic disorders, in the present application we are effectively increasing the magnesium content of acamprosate and related compounds by administering magnesium ion (as a salt or chelate) in combination with a salt of N-acetylhomotaurinate, because there is a significant benefit to administering a higher ratio of magnesium to acamprosate than is present in the magnesium salt of acamprosate.
Relief of symptoms began within 48 hours of administration of acamprosate, and, if a patient discontinued acamprosate, symptoms returned immediately. […]

[2] = system: person two with long-standing TD; experiment: Rey Auditory-Verbal Learning Test 15-items (Case 1); details: ON drug
Protocol: On acamprosate, the patient was able to sustain concentration for prolonged periods. […] The patient's cognitive improvement was also assessed using formal neuropsychological measures. The patient was tested while on the drug, then taken off of the drug and tested two days later. On the drug, the patient was able to recall 13 of the 15 items after a short delay as well as 13 of the 15 items after a long delay, as measured by the Rey Auditory Verbal Learning Test. This was in comparison to the patient's ability while off the drug to recall only 7 of the 15 items after a short delay as well as 8 of the items after a long delay in tests performed. In addition, the patient was able to recognize all 15 of the items while on acamprosate but while off the drug (and while having been off of memantine for over 2 months) the patient could only recognize 10 of the items. The order of testing would give the advantage of familiarity to the off-drug condition. Nonetheless, the difference in favor of the on-drug condition was substantial.
(§1) The following tables report on the results of the neuropsychological tests (Drug I is memantine and Drug II is acamprosate): […]

[3] = system: person with simple tic of the neck; experiment: Case Report 5: frequency of simple tic of the neck; details: Case 5
Protocol: A person had simple tic of the neck that involved forceful extension and rotation of the neck to the right. The tic had started in the context of therapy of depression with dextroamphetamine and pramipexole, a dopamine agonist drug. The tic occurred from 20-50 times per hour, with greater frequency when they were tired or under stress.
They were initially treated with 666 mg of acamprosate three times a day. Within 24 hours after the start of acamprosate therapy, the frequency and severity of the tic decreased dramatically, to a rate of less than 5 per hour. The patient often was free of tics completely for 2 to 3 hours after each dose of acamprosate, after which time the tic would very gradually return. The dose was then raised to 666 mg four times a day. On this dose, rates of more than 5 per hour occurred only under unusually stressful circumstances, and there were frequent tic-free periods of 4 hours or more. […] On a second day without acamprosate, the rate of tics was again over 20 per hour.
[…] then added chelated magnesium, at a dosage of 300 mg of elemental magnesium 3 times a day. With magnesium supplementation, the average tic frequency dropped to 6 hour or less. When 666 mg of acamprosate was given three times a day was given together with magnesium 300 mg three times a day, the usual tic-free period after each acamprosate dose increased from approximately 3 hours to approximately 5 hours.

[4] = system: person two with long-standing TD; experiment: Finger Tapping (Case 1); details: ON drug, higher score better
Source text: as §1

[5] = system: person two with long-standing TD; experiment: Figural Fluency (Case 1); details: ON drug
Source text: as §1

[6] = system: person two with long-standing TD; experiment: Rey-Osterrieth Complex Figure (Case 1); details: ON drug, higher score better
Source text: as §1

[7] = system: person two with long-standing TD; experiment: Verbal Fluency (Case 1); details: ON drug
Source text: as §1

[8] = system: person two with long-standing TD; experiment: Grip Strength (Case 1); details: ON drug, higher score better
Source text: as §1

[9] = of 15 items, higher score better

CC(=O)NCCCS(=O)(=O)O [acamprosate, calcium N-acetylhomotaurinate]
time to beginning of relief of symptoms [1]: ≤ 48 h | RAVLT List A Trial 1 ([2]; higher score better): 10 | RAVLT List A Trial 5 ([2]; higher score better): 14 | RAVLT List B ([2]; higher score better): 8 | Rey Auditory Verbal Learning Test List A 1-5 total (75 max) ([2]; higher score better): 63 | RAVLT False Positive ([2]; lower score better): 1 | RAVLT Intrusions ([2]; lower score better): 0 | RAVLT Perseverations ([2]; lower score better): 5 | RAVLT Long-Delay Free Recall [2, 9]: 13 | RAVLT Recognition Hits [2, 9]: 15 | RAVLT Short-Delay Free Recall [2, 9]: 13 | tic-free periods ([3]; 666 mg four times a day): ≥ 4 h | tic rate ([3]; 666 mg three times a day): less than 5 per hour | time to decrease of tic frequency and severity ([3]; after start of therapy): ≤ 24 h

CC12CC3CC(C)(C1)CC(N)(C3)C2 [memantine]
Finger Tapping DH [4]: DH = 59.3 | Finger Tapping NDH [4]: NDH = 48.5 | Figural Fluency Unique Designs ([5]; higher score better): 124 | Figural Fluency Perseverations ([5]; lower score better): 8 | Rey-Osterrieth Complex Figure Copy Organization [6]: 5 | Rey-Osterrieth Complex Figure Copy Presence & Accuracy [6]: 20 | Rey-Osterrieth Complex Figure Delayed Retention [6]: −11.1 | Rey-Osterrieth Complex Figure Immediate Retention [6]: −55 | Verbal Fluency Category (Animals) Per [7]: Per = 0^b | Verbal Fluency Letter (CFL) Per [7]: Per = 2^b | Verbal Fluency Category (Animals) Total ([7]; higher score better): Total = 25 | Verbal Fluency Letter (CFL) Total ([7]; higher score better): Total = 70 | Grip Strength DH [8]: DH = 17.7 | Grip Strength NDH [8]: NDH = 21.7
